Experimental data: patent publication US10219516B2, “Molecules having pesticidal utility, and intermediates, compositions, and processes, related thereto” (priority 2015, dated 2019)

Key:
Assay type in all cases: in vivo
[1] = system: Beet Armyworm (Spodoptera exigua, LAPHEG); experiment: Bioassay on Beet Armyworm (BAW), 128-well diet tray assay; conditions: Beet Armyworm, 128-well diet tray assay, read-out: BAW rating
How it was run: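 Percent mortality, averaged across eight replicate wells, was scored after five to seven days at 25° C. under a 14:10 light-dark cycle. Each well's diet carried 50 μg/cm^2 of the dried test molecule and held one to five second instar larvae.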

[2] = system: Cabbage Looper (Trichoplusia ni, TRIPNI); experiment: Bioassay on Cabbage Looper (CL), 128-well diet tray assay; conditions: Trichoplusia ni; Cabbage Looper, 128-well diet tray assay; read-out: CL rating
How it was run: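 Percent mortality, averaged across eight replicate wells, was scored after five to seven days at 25° C. under a 14:10 light-dark cycle. Each well held one to five second instar larvae on artificial diet treated at 50 μg/cm^2 with compound from 90:10 acetone-water, allowed to dry before infestation.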

[3] = system: Yellow Fever Mosquito (Aedes aegypti, AEDSAE); experiment: Bioassay on Yellow Fever Mosquito (YFM), 96-well plate larval assay; conditions: Yellow Fever Mosquito, 96-well plate larval assay
How it was run: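 Aedes aegypti larvae (about 1 day old) in liver-powder water were added to plates dispensed from DMSO master plates (4000 ppm stock) diluted with 90:10 water/acetone; six replicate plates per master. Lidded plates were held at room temperature for 3 days, then each well was scored for mortality.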

Cc1cc(NC(=O)c2cc(NC(=O)[C@H]3[C@H](c4cc(Cl)cc(Cl)c4)C3(Cl)Cl)ccc2Cl)cc(C)c1F (relative stereo) [PF53, trans-2-Chloro-5-(2,2-dichloro-3-(3,5-dichlorophenyl)cyclopropane-1-carboxamido)-N-(4-fluoro-3,5-dimethylphenyl)benzamide]
pest or weed control at 50 µg/cm2 [1]: 50 to 100%
pest or weed control at 50 µg/cm2 [2]: 50 to 100%
YFM rating [3]: A (80-100)

Cc1c(F)ccc(NC(=O)c2cc(NC(=O)[C@H]3[C@H](c4cc(Cl)cc(Cl)c4)C3(Cl)Cl)ccc2Cl)c1C (relative stereo) [PF54, trans-2-Chloro-5-(2,2-dichloro-3-(3,5-dichlorophenyl)cyclopropane-1-carboxamido)-N-(4-fluoro-2,3-dimethylphenyl)benzamide]
pest or weed control at 50 µg/cm2 [1]: 50 to 100%
pest or weed control at 50 µg/cm2 [2]: 50 to 100%
YFM rating [3]: A (80-100)

O=C(Nc1ccc(-n2ccnc2)cc1)c1cc(NC(=O)[C@H]2[C@H](c3cc(Cl)cc(Cl)c3)C2(Cl)Cl)ccc1Cl (relative stereo) [PF56, trans-N-(4-(1H-Imidazol-1-yl)phenyl)-2-chloro-5-(2,2-dichloro-3-(3,5-dichlorophenyl)cyclopropane-1-carboxamido)benzamide]
pest or weed control at 50 µg/cm2 [1]: 50 to 100%
pest or weed control at 50 µg/cm2 [2]: 50 to 100%
YFM rating [3]: A (80-100)

O=C(Nc1ccc(-n2cncn2)cc1)c1cc(NC(=O)[C@H]2[C@H](c3cc(Cl)cc(Cl)c3)C2(Cl)Cl)ccc1Cl (relative stereo) [PF57, trans-N-(4-(1H-1,2,4-Triazol-1-yl)phenyl)-2-chloro-5-(2,2-dichloro-3-(3,5-dichlorophenyl)cyclopropane-1-carboxamido)benzamide]
pest or weed control at 50 µg/cm2 [1]: 50 to 100%
pest or weed control at 50 µg/cm2 [2]: 50 to 100%
YFM rating [3]: A (80-100)

COc1cc(F)ccc1NC(=O)c1cc(NC(=O)[C@H]2[C@H](c3cc(Cl)cc(Cl)c3)C2(Cl)Cl)ccc1Cl (relative stereo) [PF58, trans-2-Chloro-5-(2,2-dichloro-3-(3,5-dichlorophenyl)cyclopropane-1-carboxamido)-N-(4-fluoro-2-methoxyphenyl)benzamide]
pest or weed control at 50 µg/cm2 [1]: 50 to 100%
pest or weed control at 50 µg/cm2 [2]: 50 to 100%
YFM rating [3]: A (80-100)

O=C(Nc1ccc(OCC(F)(F)F)cc1)c1cc(NC(=O)[C@H]2[C@H](c3cc(Cl)cc(Cl)c3)C2(Cl)Cl)ccc1Cl (relative stereo) [PF62, trans-2-Chloro-5-(2,2-dichloro-3-(3,5-dichlorophenyl)cyclopropane-1-carboxamido)-N-(4-(2,2,2-trifluoroethoxy)phenyl)benzamide]
pest or weed control at 50 µg/cm2 [1]: 50 to 100%
pest or weed control at 50 µg/cm2 [2]: 50 to 100%
YFM rating [3]: A (80-100)

O=C(Nc1ccc(F)c(F)c1F)c1cc(NC(=O)[C@H]2[C@H](c3cc(Cl)cc(Cl)c3)C2(Cl)Cl)ccc1Cl (relative stereo) [PF68, trans-2-Chloro-5-(2,2-dichloro-3-(3,5-dichlorophenyl)cyclopropane-1-carboxamido)-N-(2,3,4-trifluorophenyl)benzamide]
pest or weed control at 50 µg/cm2 [1]: 50 to 100%
pest or weed control at 50 µg/cm2 [2]: 50 to 100%
YFM rating [3]: A (80-100)

N#Cc1ccccc1NC(=O)c1cc(NC(=O)[C@H]2[C@H](c3cc(Cl)cc(Cl)c3)C2(Cl)Cl)ccc1Cl (relative stereo) [PF72, trans-2-Chloro-N-(2-cyanophenyl)-5-(2,2-dichloro-3-(3,5-dichlorophenyl)cyclopropane-1-carboxamido)benzamide]
pest or weed control at 50 µg/cm2 [1]: 50 to 100%
pest or weed control at 50 µg/cm2 [2]: 50 to 100%
YFM rating [3]: A (80-100)

O=C(Nc1ccc([N+](=O)[O-])cc1F)c1cc(NC(=O)[C@H]2[C@H](c3cc(Cl)cc(Cl)c3)C2(Cl)Cl)ccc1Cl (relative stereo) [PF74, trans-2-Chloro-5-(2,2-dichloro-3-(3,5-dichlorophenyl)cyclopropane-1-carboxamido)-N-(2-fluoro-4-nitrophenyl)benzamide]
pest or weed control at 50 µg/cm2 [1]: 50 to 100%
pest or weed control at 50 µg/cm2 [2]: 50 to 100%
YFM rating [3]: A (80-100)

O=C(Nc1cc(Cl)cc(Cl)c1)c1cc(NC(=O)[C@H]2[C@H](c3cc(Cl)cc(Cl)c3)C2(Cl)Cl)ccc1Cl (relative stereo) [PF76, trans-2-Chloro-5-(2,2-dichloro-3-(3,5-dichlorophenyl)cyclopropane-1-carboxamido)-N-(3,5-dichlorophenyl)benzamide]
pest or weed control at 50 µg/cm2 [1]: 50 to 100%
pest or weed control at 50 µg/cm2 [2]: 50 to 100%
YFM rating [3]: A (80-100)

CC(=O)c1cc(F)ccc1NC(=O)c1cc(NC(=O)[C@H]2[C@H](c3cc(Cl)cc(Cl)c3)C2(Cl)Cl)ccc1Cl (relative stereo) [PF77, trans-N-(2-acetyl-4-fluorophenyl)-2-chloro-5-(2,2-dichloro-3-(3,5-dichlorophenyl)cyclopropane-1-carboxamido)benzamide]
pest or weed control at 50 µg/cm2 [1]: 50 to 100%
pest or weed control at 50 µg/cm2 [2]: 50 to 100%
YFM rating [3]: A (80-100)

CC(=O)c1ccc(NC(=O)c2cc(NC(=O)[C@H]3[C@H](c4cc(Cl)cc(Cl)c4)C3(Cl)Cl)ccc2Cl)c(F)c1 (relative stereo) [PF78, trans-N-(4-acetyl-2-fluorophenyl)-2-chloro-5-(2,2-dichloro-3-(3,5-dichlorophenyl)cyclopropane-1-carboxamido)benzamide]
pest or weed control at 50 µg/cm2 [1]: 50 to 100%
pest or weed control at 50 µg/cm2 [2]: 50 to 100%
YFM rating [3]: A (80-100)

O=C(Nc1ccc(-n2cnnc2)cc1)c1cc(NC(=O)[C@H]2[C@H](c3cc(Cl)cc(Cl)c3)C2(Cl)Cl)ccc1Cl (relative stereo) [PF102, trans-N-(4-(4H-1,2,4-Triazol-4-yl)phenyl)-2-chloro-5-(2,2-dichloro-3-(3,5-dichlorophenyl)cyclopropane-1-carboxamido)benzamide]
pest or weed control at 50 µg/cm2 [1]: 50 to 100%
pest or weed control at 50 µg/cm2 [2]: 50 to 100%
YFM rating [3]: A (80-100)

O=C(Nc1ccc(NC(=O)C2CC2)cc1)c1cc(NC(=O)[C@H]2[C@H](c3cc(Cl)cc(Cl)c3)C2(Cl)Cl)ccc1Cl (relative stereo) [PF107, trans-2-Chloro-N-(4-(cyclopropane-1-carboxamido)phenyl)-5-(2,2-dichloro-3-(3,5-dichlorophenyl)cyclopropane-1-carboxamido)benzamide]
pest or weed control at 50 µg/cm2 [1]: 50 to 100%
pest or weed control at 50 µg/cm2 [2]: 50 to 100%
YFM rating [3]: A (80-100)

O=C(Nc1ccc(NC(=O)C2CC2(F)F)cc1)c1cc(NC(=O)[C@H]2[C@H](c3cc(Cl)cc(Cl)c3)C2(Cl)Cl)ccc1Cl (relative stereo) [PF108, trans-2-chloro-5-(2,2-dichloro-3-(3,5-dichlorophenyl)cyclopropane-1-carboxamido)-N-(4-(2,2-difluorocyclopropane-1-carboxamido)phenyl)benzamide]
pest or weed control at 50 µg/cm2 [1]: 50 to 100%
pest or weed control at 50 µg/cm2 [2]: 50 to 100%
YFM rating [3]: A (80-100)

COC(=O)Nc1ccc(NC(=O)c2cc(NC(=O)[C@H]3[C@H](c4cc(Cl)cc(Cl)c4)C3(Cl)Cl)ccc2Cl)cc1 (relative stereo) [PF110, trans-methyl (4-(2-chloro-5-(2,2-dichloro-3-(3,5-dichlorophenyl)cyclopropane-1-carboxamido)benzamido)phenyl)carbamate]
pest or weed control at 50 µg/cm2 [1]: 50 to 100%
pest or weed control at 50 µg/cm2 [2]: 50 to 100%
YFM rating [3]: B (More than 0-Less than 80)

Cc1cc(NC(=O)c2cc(NC(=O)[C@H]3[C@H](c4cc(Cl)cc(Cl)c4)C3(Cl)Cl)ccc2Cl)ccc1Cl (relative stereo) [PF113, trans-2-Chloro-N-(4-chloro-3-methylphenyl)-5-(2,2-dichloro-3-(3,5-dichlorophenyl)cyclopropane-1-carboxamido)benzamide]
pest or weed control at 50 µg/cm2 [1]: 50 to 100%
pest or weed control at 50 µg/cm2 [2]: 50 to 100%
YFM rating [3]: A (80-100)

O=C(Nc1nnn[nH]1)c1cc(NC(=O)[C@H]2[C@H](c3cc(Cl)cc(Cl)c3)C2(Cl)Cl)ccc1Cl (relative stereo) [PF130, trans-2-Chloro-5-(2,2-dichloro-3-(3,5-dichlorophenyl)cyclopropane-1-carboxamido)-N-(1H-tetrazol-5-yl)benzamide]
pest or weed control at 50 µg/cm2 [1]: 50 to 100%
pest or weed control at 50 µg/cm2 [2]: 50 to 100%
YFM rating [3]: B (More than 0-Less than 80)

O=C(Nc1nc(-c2cccs2)cs1)c1cc(NC(=O)[C@H]2[C@H](c3cc(Cl)cc(Cl)c3)C2(Cl)Cl)ccc1Cl (relative stereo) [PF135, trans-2-Chloro-5-(2,2-dichloro-3-(3,5-dichlorophenyl)cyclopropane-1-carboxamido)-N-(4-(thiophen-2-yl)thiazol-2-yl)benzamide]
pest or weed control at 50 µg/cm2 [1]: 50 to 100%
pest or weed control at 50 µg/cm2 [2]: 50 to 100%
YFM rating [3]: A (80-100)

O=C(Nc1c[nH]c(=O)[nH]c1=O)c1cc(NC(=O)[C@H]2[C@H](c3cc(Cl)cc(Cl)c3)C2(Cl)Cl)ccc1Cl (relative stereo) [PF139, trans-2-Chloro-5-(2,2-dichloro-3-(3,5-dichlorophenyl)cyclopropane-1-carboxamido)-N-(2,4-dioxo-1,2,3,4-tetrahydropyrimidin-5-yl)benzamide]
pest or weed control at 50 µg/cm2 [1]: 50 to 100%
pest or weed control at 50 µg/cm2 [2]: 50 to 100%
YFM rating [3]: B (More than 0-Less than 80)

O=C(Nc1cc(Cl)ccn1)c1cc(NC(=O)[C@H]2[C@H](c3cc(Cl)cc(Cl)c3)C2(Cl)Cl)ccc1Cl (relative stereo) [PF140, trans-2-Chloro-N-(4-chloropyridin-2-yl)-5-(2,2-dichloro-3-(3,5-dichlorophenyl)cyclopropane-1-carboxamido)benzamide]
pest or weed control at 50 µg/cm2 [1]: 50 to 100%
pest or weed control at 50 µg/cm2 [2]: 50 to 100%
YFM rating [3]: A (80-100)
